Columns and labels:
CD8-positive T cells = assay: Tetramer staining (HLA-A2/peptide tetramers, flow cytometry); type: cell-based, human; details: 2 examined patients (text summary of Table 4)
Description: 10^6 of each BM-MNC and PB-MNC are blocked with 5% endobulin (immunoglobulin G), incubated with tetramers on ice for 45 min and then stained with CD8-FITC (Becton Dickinson). Dead cells are identified by propidium iodide. The number of T-cells which are double positive for CD8 and tetramer are determined by flow cytometry.

[1] = test system: peptide-specific T-cells from the bone marrow (BMTCs); assay: IFN-γ Enzyme-Linked Immuno Assay (ELISpot); type: cell-based, human; details: for patients significantly reacted against peptide: BMTCs of 15 female breast cancer patients, insulin p34 negative control, 10 μg/ml peptide; for reaction of T cells in ELISpot: vs insulin
Description: Mononuclear cells (MNC) from periphery blood (PB) and bone marrow (BM) were isolated via Ficoll gradients (Biocoll separating solution, Biochrom AG). MNC were washed two times with RPMI 1640, transferred to uncoated cell culture dishes, and grown for two hours at 37° C., 5% CO2 in x-VIVO-20 media (BioWhittaker, Walkersville, Md.) for adhesion. Adherent cells were cultivated for 7 day in x-VIVO-20 media with the addition of GM-CSF ([…]; Behringwerke, Marburg) and IL-4 (1000 U/ml; Promocell, Heidelberg). Dendritic cells (DCs) were magnetically isolated via anti-CD-3-coated and anti-CD-19-coated magnetic beads (Dynal). Non-adherent cells were cultivated for 7 days in RPMI 1640 supplemented with 8% human AB sera (Sigma), rhuIL-2 (100 U/ml; Chiron, Ratingen) and IL-4 (60 U/ml). T cells (TCs) were purified via anti-CD-56-coated, anti-CD-19-coated and anti-CD-15-coated magnetic beads.
The number of peptide-specific T-cells from the bone marrow (BMTCs) of female patients is determined by the ELISpot method. For this purpose, a 96-well ELISpot plate (Millipore) is coated with anti-human-IFNγ antibodies (ELISpot Kit, Mabtech) over night at 4° C. and then one hour blocked with RPMI 5% AB sera (37° C., 5% CO2). 10^4 DCs, 10^5 TCs and 10 μg/ml peptide are cultivated on the IFN-γ-coated ELISpot plate for 40 hours (37° C., 5% CO2). Supernatants are discarded and the plate is developed via the ELISpot kit (Mabtech). IFN-γ producing cells are counted with Axioplan Mikroskop (Zeiss) by using the KS ELISpot software. For negative controls, HIV or insulin peptides are used. Each group is determined in triplicate. Positive results are measured via the so-called T-test (p<0.05).

| Substance | HLA-A2peptide staining of CD8-positive T cells (CD8-positive T cells) | patients significantly reacted against peptide [1] | reaction of T cells in ELISpot ([1]; MaCa patient 503) | reaction of T cells in ELISpot ([1]; MaCa patient 639) | reaction of T cells in ELISpot ([1]; MaCa patient 704) | reaction of T cells in ELISpot ([1]; MaCa patient 579) | reaction of T cells in ELISpot ([1]; MaCa patient 581) | reaction of T cells in ELISpot ([1]; MaCa patient 753) | reaction of T cells in ELISpot ([1]; MaCa patient 790) | reaction of T cells in ELISpot ([1]; MaCa patient 590) | reaction of T cells in ELISpot ([1]; MaCa patient 923) |
| --- | --- | --- | --- | --- | --- | --- | --- | --- | --- | --- | --- |
| A L P P P L M L L (ALPPPLMLL) [Hpa p8] | enriched fractions of CD8-positive T cells | 20% | x (x = positive (p value < 0.05) reaction of T cells in ELISpot) | x (x = positive (p value < 0.05) reaction of T cells in ELISpot) | x (x = positive (p value < 0.05) reaction of T cells in ELISpot) |  |  |  |  |  |  |
| D L I F G L N A L (DLIFGLNAL) [Hpa p183] |  | 40% | x (x = positive (p value < 0.05) reaction of T cells in ELISpot) | x (x = positive (p value < 0.05) reaction of T cells in ELISpot) |  | x (x = positive (p value < 0.05) reaction of T cells in ELISpot) | x (x = positive (p value < 0.05) reaction of T cells in ELISpot) | x (x = positive (p value < 0.05) reaction of T cells in ELISpot) | x (x = positive (p value < 0.05) reaction of T cells in ELISpot) |  |  |
| L L L G P L G P L (LLLGPLGPL) [Hpa p16] | enriched fractions of CD8-positive T cells | 33% | x (x = positive (p value < 0.05) reaction of T cells in ELISpot) | x (x = positive (p value < 0.05) reaction of T cells in ELISpot) |  | x (x = positive (p value < 0.05) reaction of T cells in ELISpot) |  |  | x (x = positive (p value < 0.05) reaction of T cells in ELISpot) | x (x = positive (p value < 0.05) reaction of T cells in ELISpot) | x (x = positive (p value < 0.05) reaction of T cells in ELISpot) |

— US7842782B2, “Heparanase-derived peptides for vaccination of tumor patients” (Deutsches Krebsforschungszentrum Stiftung Des Öffentlichen …, priority 2003, dated 2010)
